Molecules are shown by their SMILES.

Sequence of Recombinant human Cbl-b (aa 36-427) (Q13191 36-427): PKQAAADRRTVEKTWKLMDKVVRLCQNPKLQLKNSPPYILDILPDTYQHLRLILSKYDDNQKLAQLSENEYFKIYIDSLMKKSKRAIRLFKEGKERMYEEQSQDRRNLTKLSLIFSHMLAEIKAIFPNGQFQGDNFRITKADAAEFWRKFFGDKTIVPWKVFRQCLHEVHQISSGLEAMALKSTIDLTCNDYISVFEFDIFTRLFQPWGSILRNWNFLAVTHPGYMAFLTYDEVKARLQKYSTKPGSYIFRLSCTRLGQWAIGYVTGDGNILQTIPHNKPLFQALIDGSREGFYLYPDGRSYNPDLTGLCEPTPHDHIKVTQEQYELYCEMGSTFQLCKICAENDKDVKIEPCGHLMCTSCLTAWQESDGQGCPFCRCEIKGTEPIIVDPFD

The target of the assay is Recombinant human Cbl-b (aa 36-427) (Homo sapiens (Human), UniProt Q13191). The assay is described as follows: Cbl-b Biochemical Assay (TR-FRET). The note with it: read-out: TR-FRET hCbl-b IC50. As for the experimental part:
Recombinant human Cbl-b (aa 36-427) was expressed in E. coli, purified and biotinylated in vitro. The protein was diluted to 12 nM in freshly prepared assay buffer consisting of 50 mM HEPES, pH 7.0, 100 mM NaCl, 5 mM MgCl2, 0.01% Triton-X 100, 0.01% BSA and 1 mM DTT. Recombinant human Src (aa 254-536)-[…]-Zap-70 (aa 281-297) fusion protein was expressed in E. coli and purified. Protein was diluted in assay buffer to 2-5 nM and supplemented with ATP to 1 mM. Fluorescein-BODIPY labeled UBE[…]([…])-Ub was prepared by conjugating ubiquitin (Ub) labeled at its N-terminus with Fluorescein-BODIPY maleimide (ThermoFisher Catalog no B10250) to E. coli expressed and purified UBE[…]([…]) [see Dou et al Nature Structural and Molecular Biology 8: 982-987, 2013]. Recombinant human UBE2D2([…]) was expressed in E. coli, purified and ubiquitinated and Bodipy labelled in vitro. Protein was diluted to 200 nM in assay buffer without MgCl2 (or Cisbio PPI buffer). Streptavidin-Terbium was added to 2 nM and EDTA to 10 mM, to provide a binding assay mix. Compounds were dissolved in DMSO and diluted to prepare a ten-point dilution series. 100 nl of each compound concentration was dispensed in duplicate in a 384 well black assay plate using acoustic dispensing. Wells for maximum signal controls received 100 nl of DMSO only and wells for minimum signal controls received 100 nl of a reference inhibitor compound at a final assay concentration of […] to produce 100% inhibition. 5 μl of diluted Cbl-b enzyme was added to all wells of the assay plate and incubated at RT for 30-60 min. The enzyme assay was initiated by addition of 5 μl of Src-Zap/ATP mix to all wells, and the plate incubated at RT for 60 min. The enzyme reaction was terminated and the binding reaction was initiated by adding 10 μl of binding assay mix to all wells and incubating the plate at RT for 60 min prior to assay read. Final assay conditions consisted of 6 nM Cbl-b, 1-2.5 nM Src-Zap70, 0.5 mM ATP, 1% (v/v) DMSO (enzyme reaction) and 100 nM UBE2D2([…])-Ub-FL-BODIPY, 5 mM EDTA, 1 nM Streptavidin-Tb (binding reaction). The HTRF assay signal was measured at 520 nm on an Envision plate reader, with reference signal at 485 or 620 nm. Data was normalized using maximum and minimum assay controls: % Inhibition=100-(100*((maximum control)-unknown)/(maximum control-minimum control)). A 4-parameter dose-response equation was used to fit the normalized dose-response data and derive an IC50 for test compounds.
On the technique in general: TR-FRET usually uses a lanthanide donor and a delayed reading to cut background.
On to `CCNc1cc(-c2c(-c3nncn3C)cnn2C)cc(N2Cc3c(cc(CN4CC[C@H](F)C4)cc3C(F)(F)F)C2=O)n1` [ACB-1, (S)-2-(6-(Ethylamino)-4-(1-methyl-4-(4-methyl-4H-1,2,4-triazol-3-yl)-1H-pyrazol-5-yl)pyridin-2-yl)-6-((3-fluoropyrrolidin-1-yl)methyl)-4-(trifluoromethyl)isoindolin-1-one], for which the IC50 is not above 200 nM. In the case of `CCn1ccc2c(-c3ccccc3-c3nncn3C)cc(N3Cc4c(cccc4C(F)(F)F)C3=O)nc21` [Example M-2, 2-(1-Ethyl-4-(2-(4-methyl-4H-1,2,4-triazol-3-yl)phenyl)-1H-pyrrolo[2,3-b]pyridin-6-yl)-4-(trifluoromethyl)isoindolin-1-one] it was 1000 to 10000 nM.

For `CCNc1cc(-c2c(-c3nncn3C)cnn2C)cc(NC(=O)c2cc(CO)cc(C3CC3)n2)n1` [ABZ-7, 6-Cyclopropyl-N-(6-(ethylamino)-4-(1-methyl-4-(4-methyl-4H-1,2,4-triazol-3-yl)-1H-pyrazol-5-yl)pyridin-2-yl)-4-(hydroxymethyl) picolinamide], the half-maximal inhibitory concentration (IC50) was not above 200 nM. With `CCNc1cc(-c2ccccc2-c2nncn2C)cc(N2Cc3c(cc(CN[C@@H]4CCC[C@@H]4O)cc3C(F)(F)F)C2=O)n1` [AQ-1, 2-(6-(Ethylamino)-4-(2-(4-methyl-4H-1,2,4-triazol-3-yl)phenyl)pyridin-2-yl)-6-((((1R,2S)-2-hydroxycyclopentyl)amino)methyl)-4-(trifluoromethyl)isoindolin-1-one], the IC50 was not above 200 nM. With `CCNc1cc(-c2ccccc2-c2nncn2C)cc(N2Cc3c(cc(CN4CCC[C@@H](C)C4)cc3C(F)(F)F)C2=O)n1` [AE-2, (R)-2-(6-(Ethylamino)-4-(2-(4-methyl-4H-1,2,4-triazol-3-yl)phenyl)pyridin-2-yl)-6-((3-methylpiperidin-1-yl)methyl)-4-(trifluoromethyl)isoindolin-1-one], the IC50 is not above 200 nM. `Cn1cnnc1-c1cnn(C)c1-c1cc(O)nc(N2Cc3c(cc(CN4CCC5(CC5)C4)cc3C(F)(F)F)C2=O)c1` [ABE-1, 6-((5-Azaspiro [2.4]heptan-5-yl)methyl)-2-(6-hydroxy-4-(1-methyl-4-(4-methyl-4H-1,2,4-triazol-3-yl)-1H-pyrazol-5-yl)pyridin-2-yl)-4-(trifluoromethyl)isoindolin-1-one]: the IC50 lay in the range of 1000 to 10000 nM. Take `CCNc1cc(-c2c(-c3nncn3C)cnn2C)cc(N2Cc3c(cc(CNCCO)cc3C(F)(F)F)C2=O)n1` [ACI-1, 2-(6-(Ethylamino)-4-(1-methyl-4-(4-methyl-4H-1,2,4-triazol-3-yl)-1H-pyrazol-5-yl)pyridin-2-yl)-6-(((2-hydroxyethyl)amino)methyl)-4-(trifluoromethyl)isoindolin-1-one]: the IC50 is not above 200 nM. `CCOc1cc(-c2ccccc2-c2nncn2C)cc(N2Cc3c(cccc3C(F)(F)F)C2=O)c1` [AAR-5, 2-(5-Ethoxy-2′-(4-methyl-4H-1,2,4-triazol-3-yl)-[1,1′-biphenyl]-3-yl)-4-(trifluoromethyl) isoindolin-1-one]: the IC50 is 200 to 1000 nM.

Consider `CCNc1cc(-c2ccc(Cl)cc2-c2nncn2C)cc(N2Cc3c(cccc3C(F)(F)F)C2=O)n1` [ACR-7, 2-(4-(4-Chloro-2-(4-methyl-4H-1,2,4-triazol-3-yl)phenyl)-6-(ethylamino)pyridin-2-yl)-4-(trifluoromethyl)isoindolin-1-one], for which the IC50 was not above 200 nM.

For `Cn1cnnc1-c1ccc(Br)cc1-c1cccc(N2Cc3c(cccc3C(F)(F)F)C2=O)c1` [AAJ-9, 2-(5′-Bromo-2′-(4-methyl-4H-1,2,4-triazol-3-yl)-[1,1′-biphenyl]-3-yl)-4-(trifluoromethyl)isoindolin-1-one], the IC50 was in the range of 1000 to 10000 nM.

Turning to `COC(=O)C1(c2cc(-c3ccccc3-c3nncn3C)cc(N3Cc4c(cccc4C(F)(F)F)C3=O)n2)CC1` [ACJ-6, Methyl 1-(4-(2-(4-methyl-4H-1,2,4-triazol-3-yl)phenyl)-6-(1-oxo-4-(trifluoromethyl)isoindolin-2-yl)pyridin-2-yl) cyclopropane-1-carboxylate], the IC50 fell in the range of 10000 to 50000 nM. For the compound `CCNc1cc(-c2c(-c3nncn3C)cnn2C)cc(NC(=O)c2cc(=O)n(CCN3CCCC3)c(C3CC3)n2)n1` [ABL-4, 2-Cyclopropyl-N-(6-(ethylamino)-4-(1-methyl-4-(4-methyl-4H-1,2,4-triazol-3-yl)-1H-pyrazol-5-yl)pyridin-2-yl)-6-oxo-1-(2-(pyrrolidin-1-yl)ethyl)-1,6-dihydropyrimidine-4-carboxamide], the half-inhibitory concentration (IC50) fell in the range of 10000 to 50000 nM.

On to `Cn1cnnc1-c1ccccc1-c1cccc(N2Cc3c(cc(CN4CCC5(CC5)C4)cc3C(F)(F)F)C2=O)c1` [AAQ-1, 6-((5-Azaspiro [2.4]heptan-5-yl)methyl)-2-(2′-(4-methyl-4H-1,2,4-triazol-3-yl)-[1,1′-biphenyl]-3-yl)-4-(trifluoromethyl)isoindolin-1-one], for which the IC50 is not above 200 nM.

With `CCOc1cc(-c2c(-c3nncn3C)cnn2C)cc(N2Cc3c(cccc3C(F)(F)F)C2=O)n1` [ABH-2, 2-(6-Ethoxy-4-(1-methyl-4-(4-methyl-4H-1,2,4-triazol-3-yl)-1H-pyrazol-5-yl)pyridin-2-yl)-4-(trifluoromethyl)isoindolin-1-one], the IC50 is 200 to 1000 nM.

For the compound `COc1ccc([C@@H](C)Cc2nncn2C)cc1N1Cc2c(cc(CN3CCCC3)cc2C(F)(F)F)C1=O` [Example F-9, (S)-2-(2-Methoxy-5-(1-(4-methyl-4H-1,2,4-triazol-3-yl)propan-2-yl)phenyl)-6-(pyrrolidin-1-ylmethyl)-4-(trifluoromethyl)isoindolin-1-one], the IC50 was 1000 to 10000 nM. For `CCNc1cc(-c2c(-c3nncn3C)cnn2C)cc(N2Cc3c(cc(C(=O)N4CC[C@H](O)C4)cc3C(F)(F)F)C2=O)n1` [ACS-4, (S)-2-(6-(Ethylamino)-4-(1-methyl-4-(4-methyl-4H-1,2,4-triazol-3-yl)-1H-pyrazol-5-yl)pyridin-2-yl)-6-(3-hydroxypyrrolidine-1-carbonyl)-4-(trifluoromethyl)isoindolin-1-one], the IC50 was not above 200 nM.

`Cn1cnnc1-c1ccccc1-c1cccc(N2Cc3c(cccc3C(F)(F)F)C2=O)c1` [AAK-2, 2-(2′-(4-Methyl-4H-1,2,4-triazol-3-yl)-[1,1′-biphenyl]-3-yl)-4-(trifluoromethyl)isoindolin-1-one]: the IC50 was in the range of 200 to 1000 nM. As to `CCNc1cc(-c2ccc(F)cc2-c2nncn2C)cc(N2Cc3c(cccc3C(F)(F)F)C2=O)n1` [ACM-8, 2-(6-(Ethylamino)-4-(4-fluoro-2-(4-methyl-4H-1,2,4-triazol-3-yl)phenyl)pyridin-2-yl)-4-(trifluoromethyl)isoindolin-1-one], the IC50 was not above 200 nM.

Consider `CCNc1cc(-c2ccccc2-c2nncn2C)cc(N2Cc3c(cc(CN4CCC(F)(F)C(C)C4)cc3C(F)(F)F)C2=O)n1` (stereo not drawn) [AK-2, 6-((4,4-Difluoro-3-methylpiperidin-1-yl)methyl)-2-(6-(ethylamino)-4-(2-(4-methyl-4H-1,2,4-triazol-3-yl)phenyl)pyridin-2-yl)-4-(trifluoromethyl)isoindolin-1-one], for which the IC50 was not above 200 nM. Take `Cn1cnnc1-c1ccccc1-c1cc(N2CCCC2)nc(N2Cc3c(cccc3C(F)(F)F)C2=O)c1` [AC-3]: the IC50 fell in the range of 1000 to 10000 nM. As for `CCNc1cc(-c2ccccc2-c2nncn2C)cc(N2Cc3c(cc(COC)cc3C(F)(F)F)C2=O)n1` [AS-2, 2-(6-(Ethylamino)-4-(2-(4-methyl-4H-1,2,4-triazol-3-yl)phenyl)pyridin-2-yl)-6-(methoxymethyl)-4-(trifluoromethyl)isoindolin-1-one], the IC50 was not above 200 nM. Regarding `Cn1cnnc1-c1cc(C#N)ccc1-c1cccc(N2Cc3c(cccc3C(F)(F)F)C2=O)c1` [ACC-8, 2-(4-Methyl-4H-1,2,4-triazol-3-yl)-3′-(1-oxo-4-(trifluoromethyl)isoindolin-2-yl)-[1,1′-biphenyl]-4-carbonitrile], the IC50 was not above 200 nM. Regarding `Cn1cnnc1-c1cc(C(N)=O)ccc1-c1cccc(N2Cc3c(cccc3C(F)(F)F)C2=O)c1` [ACD-1, 2-(4-Methyl-4H-1,2,4-triazol-3-yl)-3′-(1-oxo-4-(trifluoromethyl)isoindolin-2-yl)-[1,1′-biphenyl]-4-carboxamide], the IC50 lay within 1000 to 10000 nM. Regarding `Cn1cnnc1-c1nccn1-c1cccc(N2Cc3c(cccc3C(F)(F)F)C2=O)c1` [AAA-8, 2-[3-[2-(4-Methyl-1,2,4-triazol-3-yl)imidazol-1-yl]phenyl]-4-(trifluoromethyl)-3H-isoindol-1-one], the IC50 lay within 10000 to 50000 nM.

As a reminder, the IC50 is the concentration at which inhibition is half-maximal.

Values taken from US12325697B2 (Nimbus Clio, Inc., priority 2021, dated 2025).
